SMILES strings stand for the structures.

The experiment has as its system Elongator complex protein 1 (ELP1, also referred to as IKBKAP). Nature of the experiment: IKBKAP-HTRF assay (IKBKAP protein in lysates of FD patient-derived fibroblasts). As to conditions: 48 hours incubation, 7-point concentration curve. The format is cell-based, human. In outline:
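Sandwich HTRF with two labelled anti-IKAP antibodies (overnight, 4 °C) measured IKBKAP in lysates of FD patient fibroblasts. Cells were exposed to compound for 48 h at 37 °C (7-point curve, 3.16-fold steps, triplicates). EC2x is the dose doubling IKBKAP versus DMSO control; MFI is sample ΔF divided by vehicle ΔF.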
Consider `N[C@@H](CF)Cc1sc2c(NCc3nccs3)cc(Cl)nc2c1Br` [Compound 70, 2-[(2R)-2-amino-3-fluoropropyl]-3-bromo-5-chloro-N-[(1,3-thiazol-2-yl)methyl]thieno[3,2-b]pyridin-7-amine], for which the “EC2x for IKBKAP protein expression (concentration producing two times the amount of IKBKAP protein vs DMSO vehicle control)” value is “***** (≤0.005 μM is indicated by five stars (*****))” and the “MFI (maximum fold increase in IKBKAP protein abundance relative to the vehicle control)” value is listed as “***** (>4.9 is indicated by five stars (*****))”.

On to `N[C@@H](CO)Cc1sc2c(NCc3nccs3)cc(Cl)nc2c1Br` [Compound 71, (2R)-2-amino-3-(3-bromo-5-chloro-7-{[(1,3-thiazol-2-yl)methyl]amino}thieno[3,2-b]pyridin-2-yl)propan-1-ol], for which the “EC2x for IKBKAP protein expression (concentration producing two times the amount of IKBKAP protein vs DMSO vehicle control)” value was “***** (≤0.005 μM is indicated by five stars (*****))” and the “MFI (maximum fold increase in IKBKAP protein abundance relative to the vehicle control)” value was “***** (>4.9 is indicated by five stars (*****))”.

Turning to `C=C[C@H](N)Cc1sc2c(NCc3nccs3)cc(Cl)nc2c1Br` [Compound 72, 2-[(2R)-2-aminobut-3-en-1-yl]-3-bromo-5-chloro-N-[(1,3-thiazol-2-yl)methyl]thieno[3,2-b]pyridin-7-amine], the “EC2x for IKBKAP protein expression (concentration producing two times the amount of IKBKAP protein vs DMSO vehicle control)” value is given as “***** (≤0.005 μM is indicated by five stars (*****))” and the “MFI (maximum fold increase in IKBKAP protein abundance relative to the vehicle control)” value was “***** (>4.9 is indicated by five stars (*****))”.

For `CC[C@H](N)Cc1sc2c(NCc3cccs3)cc(Cl)nc2c1Br` [Compound 73, 2-[(2S)-2-aminobutyl]-3-bromo-5-chloro-N-[(thiophen-2-yl)methyl]thieno[3,2-b]pyridin-7-amine], the “EC2x for IKBKAP protein expression (concentration producing two times the amount of IKBKAP protein vs DMSO vehicle control)” value is “***** (≤0.005 μM is indicated by five stars (*****))” and the “MFI (maximum fold increase in IKBKAP protein abundance relative to the vehicle control)” value is “***** (>4.9 is indicated by five stars (*****))”.

For `N[C@@H](CCF)Cc1sc2c(NCc3cccs3)cc(Cl)nc2c1Br` [Compound 74, 2-[(2S)-2-amino-4-fluorobutyl]-3-bromo-5-chloro-N-[(thiophen-2-yl)methyl]thieno[3,2-b]pyridin-7-amine], the “EC2x for IKBKAP protein expression (concentration producing two times the amount of IKBKAP protein vs DMSO vehicle control)” value is reported as “***** (≤0.005 μM is indicated by five stars (*****))” and the “MFI (maximum fold increase in IKBKAP protein abundance relative to the vehicle control)” value is reported as “***** (>4.9 is indicated by five stars (*****))”.

Consider `N[C@@H](CF)Cc1sc2c(NCc3cccs3)cc(Cl)nc2c1Br` [Compound 76, 2-[(2R)-2-amino-3-fluoropropyl]-3-bromo-5-chloro-N-[(thiophen-2-yl)methyl]thieno[3,2-b]pyridin-7-amine], for which the “EC2x for IKBKAP protein expression (concentration producing two times the amount of IKBKAP protein vs DMSO vehicle control)” value is on record as “***** (≤0.005 μM is indicated by five stars (*****))” and the “MFI (maximum fold increase in IKBKAP protein abundance relative to the vehicle control)” value is “***** (>4.9 is indicated by five stars (*****))”.

As to `CC[C@H](N)Cc1sc2c(NCc3nccs3)cc(Cl)nc2c1Br` [Compound 78, 2-[(2S)-2-aminobutyl]-3-bromo-5-chloro-N-[(1,3-thiazol-2-yl)methyl]thieno[3,2-b]pyridin-7-amine], the “EC2x for IKBKAP protein expression (concentration producing two times the amount of IKBKAP protein vs DMSO vehicle control)” value is “***** (≤0.005 μM is indicated by five stars (*****))” and the “MFI (maximum fold increase in IKBKAP protein abundance relative to the vehicle control)” value was “***** (>4.9 is indicated by five stars (*****))”.

For `CC(C)C[C@H](N)Cc1sc2c(NCc3nccs3)cc(Cl)nc2c1Cl` [Compound 79, 2-[(2S)-2-amino-4-methylpentyl]-3,5-dichloro-N-[(1,3-thiazol-2-yl)methyl]thieno[3,2-b]pyridin-7-amine], the “EC2x for IKBKAP protein expression (concentration producing two times the amount of IKBKAP protein vs DMSO vehicle control)” value is “***** (≤0.005 μM is indicated by five stars (*****))” and the “MFI (maximum fold increase in IKBKAP protein abundance relative to the vehicle control)” value was “***** (>4.9 is indicated by five stars (*****))”.

For the compound `Cc1c(C[C@@H](N)CF)sc2c(NCc3ccco3)cc(Cl)nc12` [Compound 81, 2-[(2R)-2-amino-3-fluoropropyl]-5-chloro-N-[(furan-2-yl)methyl]-3-methylthieno[3,2-b]pyridin-7-amine], the “EC2x for IKBKAP protein expression (concentration producing two times the amount of IKBKAP protein vs DMSO vehicle control)” value is “***** (≤0.005 μM is indicated by five stars (*****))” and the “MFI (maximum fold increase in IKBKAP protein abundance relative to the vehicle control)” value was “***** (>4.9 is indicated by five stars (*****))”.

In the case of `CC[C@H](N)Cc1sc2c(NCc3nccs3)cc(Cl)nc2c1Cl` [Compound 82, 2-[(2S)-2-aminobutyl]-3,5-dichloro-N-[(1,3-thiazol-2-yl)methyl]thieno[3,2-b]pyridin-7-amine], the “EC2x for IKBKAP protein expression (concentration producing two times the amount of IKBKAP protein vs DMSO vehicle control)” value is recorded as “***** (≤0.005 μM is indicated by five stars (*****))” and the “MFI (maximum fold increase in IKBKAP protein abundance relative to the vehicle control)” value is “***** (>4.9 is indicated by five stars (*****))”.

For `CC[C@H](N)Cc1sc2c(NCc3cccs3)cc(Cl)nc2c1Cl` [Compound 83, 2-[(2S)-2-aminobutyl]-3,5-dichloro-N-[(thiophen-2-yl)methyl]thieno[3,2-b]pyridin-7-amine], the “EC2x for IKBKAP protein expression (concentration producing two times the amount of IKBKAP protein vs DMSO vehicle control)” value is reported as “***** (≤0.005 μM is indicated by five stars (*****))” and the “MFI (maximum fold increase in IKBKAP protein abundance relative to the vehicle control)” value is reported as “***** (>4.9 is indicated by five stars (*****))”.

Take `N[C@@H](CF)Cc1sc2c(NCc3cccs3)cc(Cl)nc2c1Cl` [Compound 84, 2-[(2R)-2-amino-3-fluoropropyl]-3,5-dichloro-N-[(thiophen-2-yl)methyl]thieno[3,2-b]pyridin-7-amine]: the “EC2x for IKBKAP protein expression (concentration producing two times the amount of IKBKAP protein vs DMSO vehicle control)” value is on record as “***** (≤0.005 μM is indicated by five stars (*****))” and the “MFI (maximum fold increase in IKBKAP protein abundance relative to the vehicle control)” value is “***** (>4.9 is indicated by five stars (*****))”.

Take `CC[C@H](N)Cc1sc2c(NCc3nccs3)cc(Cl)nc2c1C` [Compound 85, 2-[(2S)-2-aminobutyl]-5-chloro-3-methyl-N-[(1,3-thiazol-2-yl)methyl]thieno[3,2-b]pyridin-7-amine]: the “EC2x for IKBKAP protein expression (concentration producing two times the amount of IKBKAP protein vs DMSO vehicle control)” value was “***** (≤0.005 μM is indicated by five stars (*****))” and the “MFI (maximum fold increase in IKBKAP protein abundance relative to the vehicle control)” value is listed as “***** (>4.9 is indicated by five stars (*****))”.

Consider `N[C@@H](CF)Cc1sc2c(NCc3nccs3)cc(Cl)nc2c1C1CC1` [Compound 87, 2-[(2R)-2-amino-3-fluoropropyl]-5-chloro-3-cyclopropyl-N-[(1,3-thiazol-2-yl)methyl]thieno[3,2-b]pyridin-7-amine], for which the “EC2x for IKBKAP protein expression (concentration producing two times the amount of IKBKAP protein vs DMSO vehicle control)” value was “*** (between >0.02 μM and ≤0.5 μM is indicated by three stars (***))”; the “MFI (maximum fold increase in IKBKAP protein abundance relative to the vehicle control)” value was “*** (between >2.9 and ≤3.9 is indicated by three stars (***))”.

On to `N[C@@H](CCF)Cc1sc2c(NCc3nccs3)cc(Cl)nc2c1Br` [Compound 88, 2-[(2S)-2-amino-4-fluorobutyl]-3-bromo-5-chloro-N-[(1,3-thiazol-2-yl)methyl]thieno[3,2-b]pyridin-7-amine], for which the “EC2x for IKBKAP protein expression (concentration producing two times the amount of IKBKAP protein vs DMSO vehicle control)” value is listed as “***** (≤0.005 μM is indicated by five stars (*****))” and the “MFI (maximum fold increase in IKBKAP protein abundance relative to the vehicle control)” value is listed as “***** (>4.9 is indicated by five stars (*****))”.

For the compound `N[C@@H](CCO)Cc1sc2c(NCc3nccs3)cc(Cl)nc2c1Br` [Compound 89, (3S)-3-amino-4-(3-bromo-5-chloro-7-{[(1,3-thiazol-2-yl)methyl]amino}thieno[3,2-b]pyridin-2-yl)butan-1-ol], the “EC2x for IKBKAP protein expression (concentration producing two times the amount of IKBKAP protein vs DMSO vehicle control)” value is reported as “***** (≤0.005 μM is indicated by five stars (*****))” and the “MFI (maximum fold increase in IKBKAP protein abundance relative to the vehicle control)” value is given as “***** (>4.9 is indicated by five stars (*****))”.

Consider `N[C@@H](CF)Cc1sc2c(NCc3nccs3)cc(Cl)nc2c1Cl` [Compound 90, 2-[(2R)-2-amino-3-fluoropropyl]-3,5-dichloro-N-[(1,3-thiazol-2-yl)methyl]thieno[3,2-b]pyridin-7-amine], for which the “EC2x for IKBKAP protein expression (concentration producing two times the amount of IKBKAP protein vs DMSO vehicle control)” value is listed as “***** (≤0.005 μM is indicated by five stars (*****))” and the “MFI (maximum fold increase in IKBKAP protein abundance relative to the vehicle control)” value is “***** (>4.9 is indicated by five stars (*****))”.

With `Cc1c(C[C@@H](N)CF)sc2c(NCc3cccs3)cc(Cl)nc12` [Compound 91, 2-[(2R)-2-amino-3-fluoropropyl]-5-chloro-3-methyl-N-[(thiophen-2-yl)methyl]thieno[3,2-b]pyridin-7-amine], the “EC2x for IKBKAP protein expression (concentration producing two times the amount of IKBKAP protein vs DMSO vehicle control)” value is on record as “***** (≤0.005 μM is indicated by five stars (*****))” and the “MFI (maximum fold increase in IKBKAP protein abundance relative to the vehicle control)” value is recorded as “***** (>4.9 is indicated by five stars (*****))”.

Regarding `Cc1c(C[C@@H](N)CCF)sc2c(NCc3cccs3)cc(Cl)nc12` [Compound 92, 2-[(2S)-2-amino-4-fluorobutyl]-5-chloro-3-methyl-N-[(thiophen-2-yl)methyl]thieno[3,2-b]pyridin-7-amine], the “EC2x for IKBKAP protein expression (concentration producing two times the amount of IKBKAP protein vs DMSO vehicle control)” value is reported as “***** (≤0.005 μM is indicated by five stars (*****))” and the “MFI (maximum fold increase in IKBKAP protein abundance relative to the vehicle control)” value is reported as “***** (>4.9 is indicated by five stars (*****))”.

`N[C@@H](CCF)Cc1sc2c(NCc3ccco3)cc(Cl)nc2c1Cl` [Compound 93, 2-[(2S)-2-amino-4-fluorobutyl]-3,5-dichloro-N-[(furan-2-yl)methyl]thieno[3,2-b]pyridin-7-amine]: the “EC2x for IKBKAP protein expression (concentration producing two times the amount of IKBKAP protein vs DMSO vehicle control)” value was “***** (≤0.005 μM is indicated by five stars (*****))” and the “MFI (maximum fold increase in IKBKAP protein abundance relative to the vehicle control)” value is “***** (>4.9 is indicated by five stars (*****))”.
